Patent publication US7052676B2, “Methods for inhibition of HIV replication using a small molecule inhibitor” (priority 2000, dated 2006)
Entries after “also recorded” stand apart in the source; their conditions may differ. Read-outs that look alike come from different tables or passages of the source.

What was measured:
PBL = type: cell-based, human
Text: In a preferred embodiment, the inhibitor is SB225002, a small molecular weight inhibitor that is an antagonist of IL-8 binding to CXCR2. In an alternate preferred embodiment, the inhibitor is antileukinate, a synthetic peptide inhibitor that interferes with both IL-8 and GRO-α binding to receptors. […] Infection of PBL with HIV-1BRU was inhibited by both the small molecule inhibitor, SB225002 (FIG. 29A), and the peptide, antileukinate (FIG. 29B). […] Cellular viability, proliferation, and activation were also analyzed in the infected cells by performing an MTT assay. […] Similarly, doses of antileukinate up to 10^−4 M in PBL and 10^−6 M in MDM reduced cellular viability by not more than 20%, and doses as low as 10^−8 M were effective at inhibiting HIV-1 replication. […] The mean decreases in HIV-1BaL replication in MDM were 4.0±1.3 for 1000 nM SB225002 (p=0.019) and 2.6±0.6 for 10^−6 M antileukinate (p=0.002) relative to controls.

MDM = assay: MTT assay of cellular viability, proliferation and activation in infected MDM; type: cell-based, human
Description: FIG. 3. […] MDM were treated as in FIGS. 1 and 2, and RT activity was measured every three to four days. MDM were also analyzed on day 13 by MTT assay (a measure of cellular viability, proliferation, and activation). Viability and activation was changed by less than 20% at all of the doses evaluated. For each treatment, viral replication was normalized against viability (RT activity/MTT assay) and then expressed relative to the control (no treatment). Data shown are the mean of three experiments;
In a preferred embodiment, the inhibitor is SB225002, a small molecular weight inhibitor that is an antagonist of IL-8 binding to CXCR2. In an alternate preferred embodiment, the inhibitor is antileukinate, a synthetic peptide inhibitor that interferes with both IL-8 and GRO-α binding to receptors. […] Infection of PBL with HIV-1BRU was inhibited by both the small molecule inhibitor, SB225002 (FIG. 29A), and the peptide, antileukinate (FIG. 29B). […] Cellular viability, proliferation, and activation were also analyzed in the infected cells by performing an MTT assay. […] Similarly, doses of antileukinate up to 10^−4 M in PBL and 10^−6 M in MDM reduced cellular viability by not more than 20%, and doses as low as 10^−8 M were effective at inhibiting HIV-1 replication. […]

HIV-1BRU [1] = assay: HIV-1BRU replication in PHA-activated PBL / T lymphocytes, RT activity in supernatants; type: cell-based; details: for increase of HIV-1BRU replication in PBL by exogenous chemokine, mean over donors: IL-8: 5 donors, CD8-depleted PBL, GRO-α: n=7, p=0.027
Description: (§1) HIV-1 Infection of MDM and PBL: For each experiment, multiple wells of MDM or PBL were infected with equal RT counts of HIV-1 (30–300×10^6 CPM of RT used per 10^5 cells). This amount of CPM of RT activity per cell corresponds to a multiplicity of infection (MOI) of between 0.01 and 0.1 as determined by titration on HOS-CD4-CCR5 and CEM-SS cell lines and quantitation of proviral DNA in PBMC 24 h after infection. MDM were cultured for 3 d prior to infection, washed after an overnight incubation with the virus, and cultured in DME+10% FBS. PHA-activated PBL were washed and incubated in RPMI+10% FBS+IL-2 (40 U/ml) overnight. CD8+cells were depleted with magnetic Dynabeads® M-450 CD8 according to the manufacturer's instructions (Dynal, Lake Success, N.Y.). CD8-depleted PBL were then incubated with HIV-1 for 4 h, washed and incubated in media +IL-2. A portion of the media (25%) was removed from the MDM and PBL supernatants and replaced twice weekly.

HIV-1BaL [2] = assay: HIV-1BaL replication in monocyte-derived macrophages (MDM), RT activity in supernatants; type: cell-based; details: for increase of HIV-1BaL replication in MDM by exogenous chemokine, mean over donors: IL-8: 17 donors, GRO-α: 5 donors
Description: as §1

GRO-α production by MDM = type: cell-based, human
HIV-1BRU [3] = assay: HIV-1BRU (X4) infection of MDM, RT activity; type: cell-based; details: MDM from multiple donors
Description: as §1

HIV-1 = details: R5 and X4 isolates of HIV-1 and HIV-2
Description: Reverse Transcriptase (RT) Assay: HIV replication was determined by quantification of the RT activity present in the supernatants using a poly(A)-oligo(dT) template primer as previously described. […] RT activity was assayed using ^32P-labeled deoxythymidine triphosphate incorporated in DNA bound to DE81 paper (Whatman) and quantified using either the Series 400 PhosphorImager and ImageQuant® software (Molecular Dynamics, Sunnyvale, Calif.) or a Betascope radioisotope imaging system. RT activity is reported as phosphoimager counts except when labeled “counts” to signify beta counts.

HIV-1BaL [4] = assay: HIV-1BaL replication in activated (CD8-depleted) PBL, RT activity; type: cell-based; details: IL-8: 11 donors; GRO-α: n=6
Description: as §1

CD14+ monocytes = assay: Intracellular IL-8 staining of PBMC (flow cytometry); type: cell-based, human; details: staining after 6 hours; control monocytes 10%
Description: Intracellular Cytokine Staining: PBMC were collected as described above and cultured in RPMI+10% FBS. The next day, PBMC were treated for 6 h with monensin (GolgiStop™, PharMingen) and incubated with virus or TNF-α. PBMC were then collected and stained for the presence of intracellular IL-8 and various cell surface markers according to the manufacturer's instructions (PharMingen). Adherent cells were collected by incubation in PBS+10 mM EDTA for 30 min at 4° C. PBMC (both adherent and non-adherent cells) were incubated in staining buffer (DPBS+1% FBS+0.09% sodium azide) with mouse IgG for 20 min at 4° C. to block non-specific binding of IgG to target cells. PBMC were then washed with staining buffer and stained for cell surface antigens for 30 min at 4° C. using R-phycoerythrin (PE)-conjugated mouse anti-human CD4 (PE-CD4) or CD14 (PE-CD14) monoclonal antibodies or PE-mouse IgG1, κ isotype control immunoglobulin (PharMingen). After two washes with staining buffer, PBMC were fixed and permeabilized with Cytofix/Cytoperm (PharMingen). PBMC were washed twice in Perm/Wash solution and then stained with either fluorescein isothiocyanate (FITC)-conjugated mouse anti-human IL-8 monoclonal antibody or FITC-mouse IgG2a, κ immunoglobulin isotype standard (PharMingen). Analysis of cell staining was performed using an EPICS Elite cell sorter (Beckman-Coulter, Fullerton, Calif.). […]

IL-8 promoter = IL-8 promoter CAT reporter in transfected U937 cells; type: cell-based, human; details: Tat co-transfection alone, or TNF-α 1 ng/ml alone
Description: Transfection of the U937 Promonocyte Cell Line: U937 cells were transfected by the DEAE-dextran method with 1 μg of HIV-1 Tat (pCG-Tat1) or control vector (pCG) and 10 μg of a plasmid containing the chloramphenicol acetyl transferase (CAT) reporter gene downstream of either sequence which lacks eukaryotic promoter and enhancer sequences (pCAT-Basic, Promega, Madison, Wis.), nucleotides −254 to +19 of the IL-8 promoter (pCAT-IL-8), or the HIV-1-LTR. The cells were either left untreated or treated with TNF-α (1 ng/ml) at 24 hours after transfection and harvested 48 hours after transfection. CAT activity was quantified and normalized for the amount of protein. Values near 6000 represent complete acetylation of chloramphenicol (100%).

monocytes = assay: Intracellular GRO staining of PBMC (flow cytometry); type: cell-based, human; details: staining after 6 hours
Description: Intracellular cytokine staining: PBMC were collected as described above and cultured in RPMI+10% FBS. The next day, PBMC were treated for 6 h with monensin (GolgiStop™, PharMingen) and incubated with virus, viral proteins, or TNF-α as indicated in the figure legend. PBMC were then collected and stained for the presence of intracellular GRO according to the manufacturer's instructions (PharMingen). Adherent cells were collected by incubation in PBS+10 mM EDTA for 30 min at 4° C. PBMC (both adherent and non-adherent cells) were then incubated in staining buffer (DPBS+1% FBS+0.09% sodium azide) with mouse IgG for 20 min at 4° C. to block non-specific binding of IgG to target cells. After two washes with staining buffer, PBMC were fixed and permeabilized with Cytofix/Cytoperm (PharMingen). PBMC were washed twice in Perm/Wash solution and then stained with either R-phycoerythrin (PE)-conjugated mouse anti-human GRO monoclonal antibody (GRO-PE) or PE-mouse IgG1, κ isotype control immunoglobulin (PharMingen). Analysis of cell staining was performed using an EPICS Elite cell sorter (Beckman-Coulter, Fullerton, Calif.). The monocyte and lymphocyte subpopulations were gated according to the pattern of forward scatter and side scatter.

IL-8 production by MDM = IL-8 production by MDM (ELISA of supernatants); details: added prior to exposure to HIV-1

Molecule: O=C(Nc1ccc([N+](=O)[O-])cc1O)Nc1ccccc1Br [SB225002, N-(2-hydroxy-4-nitrophenyl)-N′-(2-bromophenyl)urea, reference compound]
- cellular viability (MTT), effect of the doses used (PBL): did not negatively affect cellular viability
- cellular viability (MTT), effect of the doses used (MDM): did not negatively affect cellular viability
- HIV-1BRU infection/replication in PBL, effect of inhibitor (HIV-1BRU [1]; treated every three days from one day before infection, RT activity days 3, 6, 9): decreases HIV-1 replication; also recorded: inhibited
- mean decrease in HIV-1BaL replication in MDM relative to controls (HIV-1BaL [2]; 1000 nM, p=0.019): 4.0±1.3
- HIV replication in MDM, effect of inhibitor (HIV-1BaL [2]; RT activity normalized against MTT, relative to no treatment, mean of three experiments): significantly decrease HIV replication

Molecule: O=c1c(-c2ccc(O)cc2)coc2cc(O)cc(O)c12 [genistein]
- HIV-1BRU-induced GRO-α production by MDM, sensitivity to inhibitor (GRO-α production by MDM): sensitive

Molecule: CO[C@H]1[C@@H](OC)C[C@H](C)[C@@H](OC)C2=CC(=O)C=C(NC(=O)/C(C)=C/C=C\[C@H](OC)[C@@H](OC(N)=O)/C(C)=C/[C@@H]1C)C2=O [herbimycin A]
- HIV-1BRU-induced GRO-α production by MDM, sensitivity to inhibitor (GRO-α production by MDM): sensitive

Molecule: GRO-α: recombinant C-X-C chemokine growth-regulated oncogene-alpha, ligand of CXCR2
- susceptibility of MDM to productive infection with X4 HIV (HIV-1BRU) with exogenous chemokine (HIV-1BRU [3]): does not confer susceptibility to productive infection with X4 HIV on MDM
- replication of other isolates tested, effect of exogenous chemokine (HIV-1): stimulated the replication of all isolates tested
- increase of HIV-1BaL replication in PBL by exogenous chemokine, mean over donors (HIV-1BaL [4]): 5 fold
- increase of HIV-1BRU replication in PBL by exogenous chemokine, mean over donors (HIV-1BRU [1]): 2.4 fold
- HIV-1BaL replication in MDM, effect of exogenous chemokine (HIV-1BaL [2]): augmented
- increase of HIV-1BaL replication in MDM by exogenous chemokine, mean over donors (HIV-1BaL [2]): 14 fold

Molecule: IL-8: recombinant human IL-8, C-X-C chemokine
- susceptibility of MDM to productive infection with X4 HIV (HIV-1BRU) with exogenous chemokine (HIV-1BRU [3]): does not confer susceptibility to productive infection with X4 HIV on MDM
- replication of other isolates tested, effect of exogenous chemokine (HIV-1): stimulated the replication of all other isolates tested
- increase of HIV-1BaL replication in PBL by exogenous chemokine, mean over donors (HIV-1BaL [4]): 4.8 fold
- increase of HIV-1BRU replication in PBL by exogenous chemokine, mean over donors (HIV-1BRU [1]): 1.7 fold
- doses that stimulated viral replication (HIV-1BRU [1]; PHA-activated, CD8-depleted PBL (FIG. 8C)): exceeding 5 ng/ml
- HIV-1BaL replication in MDM, effect of exogenous chemokine (HIV-1BaL [2]): augmented
- increase of HIV-1BaL replication in MDM by exogenous chemokine, mean over donors (HIV-1BaL [2]): 6.2 fold

Molecule: IP-10: CXCR3 ligand, C-X-C chemokine
- HIV-1BRU replication in peripheral blood lymphocytes, effect of exogenous chemokine (HIV-1BRU [1]): stimulation
- HIV-1BaL replication in MDM, effect of exogenous chemokine (HIV-1BaL [2]): stimulation

Molecule: SDF-1α
- GRO-α production by MDM, effect of treatment with the agent alone (GRO-α production by MDM): not produced

Molecule: TNF-α
- CD14+ monocytes in which IL-8 was present (CD14+ monocytes): > 90%
- IL-8 promoter activity, effect of single stimulus (IL-8 promoter): activated
- monocytes in which GRO was present (monocytes): large percentage of monocytes

Molecule: polymixin B
- HIV-induced IL-8 production by MDM, effect of antibody or agent (IL-8 production by MDM): did not prevent the HIV-induced increase in IL-8 production
- HIV-1BRU-induced GRO-α production by MDM, sensitivity to inhibitor (GRO-α production by MDM; supernatants 20 hours after exposure to virus): did not prevent the HIV-1BRU-induced increases in GRO-α

B1: RANTES: C-C chemokine which binds to CCR5 and CCR1 (protein, UniProt P13501 24-91, looked up)
C-C motif chemokine 5: SPYSSDTTPCCFAYIARPLPRAHIKEYFYTSGKCSNPAVVFVTRKNRQVCANPEKKWVREYINSLEMS
- GRO-α production by MDM, effect of treatment with the agent alone (GRO-α production by MDM): nor RANTES, which binds to CCR5 and CCR1, was able to stimulate GRO-α production

B2: I-TAC: CXCR3 ligand, C-X-C chemokine (protein, UniProt O14625 22-94, looked up)
C-X-C motif chemokine 11: FPMFKRGRCLCIGPGVKAVKVADIEKASIMYPSNNCDKIEVIITLKENKGQRCLNPKSKQARLIIKKVERKNF
- HIV-1BRU replication in peripheral blood lymphocytes, effect of exogenous chemokine (HIV-1BRU [1]): stimulation

B3: MIG: CXCR3 ligand, C-X-C chemokine (protein, UniProt Q07325 23-125, looked up)
C-X-C motif chemokine 9: TPVVRKGRCSCISTNQGTIHLQSLKDLKQFAPSPSCEKIEIIATLKNGVQTCLNPDSADVKELIKKWEKQVSQKKKQKNGKKHQKKKVLKVRKSQRSRQKKTT
- HIV-1BRU replication in peripheral blood lymphocytes, effect of exogenous chemokine (HIV-1BRU [1]): stimulation
